Reference: patent US20160115200A1, “New Use for JNK Inhibitor Molecules for Treatment of Various Diseases” (XIGEN INFLAMMATION LTD., priority 2013, published 2016)
Square brackets hold non-standard residues; d marks the D form. Ends that are not written are not given here.

What was measured:
[1] = tested on: IMQ-induced psoriasis in BALB/c mice; assay: Imiquimod-induced psoriasis in mice, ear histopathology; assay type: in vivo, mouse; settings: Prednisolone 10 mg/kg PO daily; for inflammation of the ear (average histopathology grade) vs vehicle-IMQ group: statistically significant
Procedure: Female BALB/cAnNCrl mice (Charles River, age 8 to 10 weeks at study start) have been assigned to the following groups (treatment schedule):
In this experiment, two positive controls have been utilized. Firstly, Prednisolone at 10 mg/kg (vehicle: 1% Hydroxyethylcellulose, 0.25% Polysorbate 80, and 0.05% Antifoam in purified water) has been dosed daily and orally (group “Prednisolone”). Secondly, Dexamethasone has been administered at 0.5 mg/kg (vehicle: sterile 0.9% NaCl) on days 1, 4 and 7 via intravenous route.
On day 8, animals have been sacrificed and the tissue (ear) has been fixed in 10% neutral buffered formalin. For histopathology hematoxylin-and-eosin-stained sections (cross cut) have been prepared and microscopic evaluation on the collected tissues from all animals has been performed. Methods and end-points for histopathology were similarly described in the van der Fits (2009) paper in that inflammation, epidermal hyperplasia, epidermal hyperkeratosis (rather than parakeratosis) were observed and recorded for severity grade, whereby the respective methodology from Van der Fits et al. (The Journal of Immunology 2009, 182, P. 5836-5845) is hereby incorporated by reference. Histopathology grading scores were excluded for either skin or ear in animals with secondary inflammatory processes (full thickness epidermal ulcers). Scores were averaged by group and standard deviation and statistical significance were calculated. […] Formalin-fixed, paraffin embedded skin from the dorsal surface of the mouse (BALB/c) was stained with hematoxylin and eosin (H&E) stain and assessed microscopically. An important difference from the above reference and to describe in more detail the observations of the present study: Hyperkeratosis can be defined specifically as orthokeratotic (no retained nuclei) or parakeratotic (retained nuclei). Either can occur normally in various anatomical locations and depending on species; however, both conditions are well defined in particular disease states. The van der Fits paper describes their Imiquimod (IMQ)-induced psoriasis model as causing parakeratotic hyperkeratosis similar to what is seen in the human condition, and that was a defined end-point for this study. However, the Danilenko et al. (Veterinary Pathology 2008 45:563) has shown that many rodent psoriasis models have orthokeratotic hyperkeratosis. […] The more general term ‘hyperkeratosis’ was used for grading end-points and describe in the text what type was seen (primarily orthokeratotic).
1=MI=minimal 2=SL=slight 3=M0=moderate 4=MA=marked 5=SE=severe

[2] = tested on: endotoxins-induced uveitis albino rat model; assay: Endotoxins-induced uveitis (EIU), single intravenous injection, clinical scoring 24 h after LPS; assay type: in vivo; design: key to EIU clinical score, median: clinical score per eye, 0 to 4 scale; settings: 20 μg/eye sub-conjunctival, 24 hours after LPS
Procedure: The aim of this study was to determine the effects of single intravenous injections of SEQ ID NO: 172 (0.015, 0.18, and 1.80 mg/kg) on the inflammatory response in an endotoxins-induced uveitis albino rat model and to compare these affects to those obtained with prior art JNK inhibitor of SEQ ID NO: 197 (2 mg/kg). As a further control served phosphate sodic dexamethasone.
Sixty (60) male Lewis rats were randomly divided into six (6) groups of ten (10) animals each. EIU was induced by footpad injection of lipopolysaccharide (LPS, 1 mg/kg). NaCl (0.9%), SEQ ID NO: 197 at 2 mg/kg and SEQ ID NO: 172 at three concentrations (1.80 mg/kg, 0.18 mg/kg and 0.015 mg/kg) were administered by intravenous injection. Phosphate sodic dexamethasone (20 μg/eye) was administered by sub-conjunctival injection in both eyes. 24 hours after LPS injection, inflammatory response was evaluated by clinical scoring.
The intensity of clinical ocular inflammation was scored on a scale from 0 to 4 for each eye: […]

[3] = tested on: established type II collagen arthritis in rats; settings: Dex 0.05 mg/kg IV QD
Hela cells = assay: Internalization of TAT derived transporters, 24 hours, fluorescence of cell extracts (FIG. 6); assay type: cell-based; settings: Y in position 2
Procedure: The transporter sequences analyzed correspond to SEQ ID NOs: 52-94 plus SEQ ID NOs: 45, 47, 46, 43 and 99 (FIG. 6a) and SEQ ID NOs: 100-147 (FIG. 6b). […] Hela cells were incubated 24 hours in 96 well plate with […] of the respective transporters. The cells were then washed twice with an acidic buffer (0.2M Glycin, 0.15M NaCl, pH 3.0) and twice with PBS. Cells were broken by the addition of RIPA lysis buffer. The relative amount of internalized peptide was then determined by reading the fluorescence intensity (Fusion Alpha plate reader; PerkinElmer) of each extract followed by background subtraction.
Hela cells were incubated 24 hours in 96 well plate with […] of the r3-L-TAT-derived transporters. The cells were then washed twice with an acidic buffer (0.2M Glycin, 0.15M NaCl, pH 3.0) and twice with PBS. Cells were broken by the addition of RIPA lysis buffer. The relative amount of internalized peptide was then determined by reading the fluorescence intensity (Fusion Alpha plate reader; PerkinElmer) of each extract followed by background subtraction

With `C[C@]12C=CC(=O)C=C1CC[C@@H]1[C@@H]2[C@@H](O)C[C@@]2(C)[C@H]1CC[C@]2(O)C(=O)CO` [Prednisolone, reference compound] the “epidermal hyperkeratosis of the ear, average grades vs vehicle-IMQ group” value [1] was “minimally decreased average grades”, the “epidermal hyperplasia of the ear vs vehicle-IMQ group” value ([1]; not statistically significant) was “below that of the vehicle-IMQ dose group” and the “inflammation of the ear (average histopathology grade) vs vehicle-IMQ group” value [1] was “decreased inflammation of the ear”. The “inflammation of the ear (average histopathology grade) vs vehicle-IMQ group” value ([1]; listed as prednisolone) was “significant differences from the vehicle control group”.
With `C[C@@H]1C[C@H]2[C@@H]3CCC4=CC(=O)C=C[C@]4(C)[C@@]3(F)[C@@H](O)C[C@]2(C)[C@@]1(O)C(=O)CO` [dexamethasone, reference compound] the “EIU clinical score, mean±SEM” value [2] was 0.8±0.2, the “EIU clinical score, median” value [2] was 0.5 and the “reduction of clinical scores vs vehicle” value [2] was 79%. The “spleen weights relative to body weight vs disease controls” value [3] was “significantly (p<0.05 by ANOVA) reduced” and the “thymus weights relative to body weight vs disease controls” value [3] was “significantly (p<0.05 by ANOVA) reduced”.
For “rYKRrQRRr ([dR]YKR[dR]QRR[dR]) [SEQ ID NO: 142]”, the “transporter activity and kinetics of transport (position scan)” value (Hela cells) was “highest transporter activity”.
